Results on 18 compounds are retold here after patent publication US12606541B2, “PPARg modulators and methods of use” (Eisai R&D Management Co., Ltd., priority 2020, dated 2026).

Assay [1] has as its target T1, His6-TEV-PPARγ-(234-505) (Homo sapiens, UniProt P37231).
T1 construct: The His6-TEV-PPARγ-(234-505) protein for assay was expressed and purified; TEV cleavage site (N); made in house
T1 sequence (P37231 234-505): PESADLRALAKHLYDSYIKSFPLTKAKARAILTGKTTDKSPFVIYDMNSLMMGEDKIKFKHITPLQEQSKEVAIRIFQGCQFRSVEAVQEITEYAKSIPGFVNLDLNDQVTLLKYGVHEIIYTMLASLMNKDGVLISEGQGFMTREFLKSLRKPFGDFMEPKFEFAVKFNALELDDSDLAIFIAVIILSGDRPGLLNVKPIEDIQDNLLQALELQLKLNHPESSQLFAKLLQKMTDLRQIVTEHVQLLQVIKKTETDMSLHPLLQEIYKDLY
As to the kind of experiment: TR-FRET Assay to Measure Co-R Peptide Recruitment to PPARγ. The conditions noted are these: Co-R peptide (SMRT-ID2) recruitment; top final concentration 20 μM; read-out: TR-FRET i-Ag; AC50. In kind it is biochemical. Put shortly: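 His-tagged PPARγ (or controls) was preincubated with compound for 20 minutes at room temperature, then 5 nM anti-His terbium antibody and 200 nM FITC-labeled SMRT-ID2 corepressor peptide (final) were added for a further hour. TR-FRET signal was normalized to percent response using 500 nM T0070907 and DMSO controls.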
A general note: Time-resolved FRET reads energy transfer from a long-lived donor to a nearby acceptor.

The test system of assay [2] is UM-UC-9 engineered cells. As to the kind of experiment: Cell proliferation / short-term viability assay, CellTiter-Glo 144 h. The class given is cell-based, human. To be noted: read-out: CTGlo 144 h UMUC9.5, G150. Put shortly:
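UM-UC-9 engineered assay-ready cells seeded at 500 cells/well in high-glucose DMEM/10% FBS, treated from dose-response plates, grown at 37° C, 5% CO2. CellTiter-Glo 2.0 luminescence read on day 7, with a day-0 pretreatment plate as T0 reference and DMSO wells as negative control.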
For orientation: In ATP-based viability assays light output follows the ATP content of the culture.

Read-outs that look alike come from different tables or passages of the source.

As for `COc1cc(-c2cc(C(=O)N3CC[C@H](C(=O)NC45COC(CO)(C4)C5)CC34CC4)n[nH]2)c(F)cn1` [Example 520, (S)-4-(5-(5-fluoro-2-methoxypyridin-4-yl)-1H-pyrazole-3-carbonyl)-N-(1-(hydroxymethyl)-2-oxabicyclo[2.1.1]hexan-4-yl)-4-azaspiro[2,5]octane-7-carboxamide], in assay [1], the AC50 is 784 nM. Moreover, the IC50 in assay [2] (Homo sapiens, UM-UC-9, 144 h) is over 10000 nM.
As to `COc1cc(-c2cc(C(=O)N3CCC(C(=O)N[C@@H]4CCN(c5ccccc5F)C4)CC34CC4)n[nH]2)c(F)cn1` (stereo partly drawn) [Example 296, 4-[5-(5-fluoro-2-methoxypyridin-4-yl)-1H-pyrazole-3-carbonyl]-N—[(R)-1-(2-fluorophenyl)pyrrolidin-3-yl]-4-azaspiro[2.5]octane-7-carboxamide], the AC50 in assay [1] is 19.8 nM. Besides, the IC50 in assay [2] (Homo sapiens, UM-UC-9, 144 h) came out at 4.1 nM.
For `COc1cc(-c2cc(C(=O)N3CC[C@H](C(=O)NC4CCN(C5COC5)CC4)CC34CC4)n[nH]2)c(F)cn1` [Example 417, (S)-4-(5-(5-fluoro-2-methoxypyridin-4-yl)-1H-pyrazole-3-carbonyl)-N-(1-(oxetan-3-yl)piperidin-4-yl)-4-azaspiro[2.5]octane-7-carboxamide], in that order: 681 nM and 1160 nM.
As to `COc1cc(-c2cc(C(=O)N3CCC(C(=O)NCC4CCn5c(C)nnc5C4)CC34CC4)[nH]n2)c(F)cn1` (mixture of isomers) [Example 346, (S)-4-(3-(5-fluoro-2-methoxypyridin-4-yl)-1H-pyrazole-5-carbonyl)-NVR)-3-methyl-5,6,7,8-tetrahydro-[1,2,4]triazolo[4,3-a]pyridin-7-yl)methyl)-4-azaspiro[2.5]octane-7-carboxamide and (8)-4-(3-(5-fluoro-2-methoxypyridin-4-yl)-1H-pyrazole-5-carbonyl)-N—(((S)-3-methyl-5,6,7,8-tetrahydro-[1,2,4]triazolo[4,3-a]pyridin-7-yl)methyl)-4-azaspiro[2.5]octane-7-carboxamide], the AC50 in assay [1] came to 371 nM. Also, in assay [2], the IC50 is over 10000 nM.
With `COc1cc(-c2cc(C(=O)N3CC[C@@H](C(=O)NCc4cccc(Cl)c4)CC34CCC4)n[nH]2)c(Cl)cn1` (single isomer, unassigned) [Example 256-B], the AC50 in assay [1] came to 15900 nM. Moreover, the IC50 in assay [2] (Homo sapiens, UM-UC-9, 144 h) came out at 3520 nM.
For `COc1cc(-c2cc(C(=O)N3CC[C@H](C(=O)N[C@H]4CC[C@@](O)(C(F)(F)F)CC4)CC34CCC4)n[nH]2)c(F)cn1` (racemic) [Example 486, (S)-5-(5-(5-fluoro-2-methoxypyridin-4-yl)-1H-pyrazole-3-carbonyl)-N-((1r,4S)-4-hydroxy-4-(trifluoromethyl)cyclohexyl)-5-azaspiro[3.5]nonane-8-carboxamide and (R)-5-(5-(5-fluoro-2-methoxypyridin-4-yl)-1H-pyrazole-3-carbonyl)-N-((1r,4R)-4-hydroxy-4-(trifluoromethyl)cyclohexyl)-5-azaspiro[3.5]nonane-8-carboxamide], in that order: 5.2 nM and 44.5 nM.
For `COc1cc(-c2cc(C(=O)N3CCC(C(=O)NCC4CC(F)(F)CO4)CC3)n[nH]2)c(Cl)cn1` (racemic) [Example 220, 1-(5-(5-chloro-2-methoxypyridin-4-yl)-1H-pyrazole-3-carbonyl)-N-((4,4-difluorotetrahydrofuran-2-yl)methyl)piperidine-4-carboxamide] the same measures were 286 nM and 2130 nM.
Consider `COc1cc(-c2cc(C(=O)N3CC[C@H](C(=O)NCc4cn5c(n4)COCC5)CC34CC4)n[nH]2)c(F)cn1` [Example 371, (S)—N-((5,6-dihydro-8H-imidazo[2,1-c][1,4]oxazin-2-yl)methyl)-4-(5-(5-fluoro-2-methoxypyridin-4-yl)-1H-pyrazole-3-carbonyl)-4-azaspiro[2.5]octane-7-carboxamide], for which the AC50 in assay [1] came out at 36.4 nM. Also, the IC50 in assay [2] (Homo sapiens, UM-UC-9, 144 h) was 338 nM.
On to `COc1cc(-c2cc(C(=O)N3CCC(C(=O)Nc4cnn5cc(C(C)O)ccc45)CC34CC4)n[nH]2)c(F)cn1` (mixture of isomers) [Example 495, (S)-4-(5-(5-fluoro-2-methoxypyridin-4-yl)-1H-pyrazole-3-carbonyl)-N-(6-((S)-1-hydroxyethyl)pyrazolo[1,5-a]pyridin-3-yl)-4-azaspiro[2.5]octane-7-carboxamide and (S)-4-(5-(5-fluoro-2-methoxypyridin-4-yl)-1H-pyrazole-3-carbonyl)-N-(6-((R)-1-hydroxyethyl)pyrazolo[1,5-a]pyridin-3-yl)-4-azaspiro[2.5]octane-7-carboxamide], for which the AC50 in assay [1] was 15.7 nM. Besides, the IC50 in assay [2] was 186 nM.
For `COc1cc(-c2cc(C(=O)N3CCC(C(=O)NCC4CCn5cncc5C4)CC34CC4)[nH]n2)c(F)cn1` (mixture of isomers) [Example 342, (8)-4-(3-(5-fluoro-2-methoxypyridin-4-yl)-1H-pyrazole-5-carbonyl)-N—(((R)-5,6,7,8-tetrahydroimidazo[1,5-a]pyridin-7-yl)methyl)-4-azaspiro[2.5]octane-7-carboxamide and (S)-4-(3-(5-fluoro-2-methoxypyridin-4-yl)-1H-pyrazole-5-carbonyl)-N—(((S)-5,6,7,8-tetrahydroimidazo[1,5-a]pyridin-7-yl)methyl)-4-azaspiro[2.5]octane-7-carboxamide], in that order: 78.3 nM and 1130 nM.
For “(S)—N—((R)-1-(3-chloropyridin-2-yl)ethyl)-4-(5-(5-fluoro-2-methoxypyridin-4-yl)-1H-pyrazole-3-carbonyl)-4-azaspiro[2.5]octane-7-carboxamide and (S)—N—((S)-1-(3-chloropyridin-2-yl)ethyl)-4-(5-(5-fluoro-2-methoxypyridin-4-yl)-1H-pyrazole-3-carbonyl)-4-azaspiro[2.5]octane-7-carboxamide [Example 360]” the same measures were 21.8 nM and 8.7 nM.
For the compound `O=C(NCc1ncc(F)cc1Cl)C1CCN(C(=O)c2cc(-c3cc(C4CC4)ncc3F)[nH]n2)C2(CC2)C1` (racemic) [Example 480, (S)—N-((3-chloro-5-fluoropyridin-2-yl)methyl)-4-(5-(2-cyclopropyl-5-fluoropyridin-4-yl)-1H-pyrazole-3-carbonyl)-4-azaspiro[2.5]octane-7-carboxamide and (R)—N-((3-chloro-5-fluoropyridin-2-yl)methyl)-4-(5-(2-cyclopropyl-5-fluoropyridin-4-yl)-1H-pyrazole-3-carbonyl)-4-azaspiro[2.5]octane-7-carboxamide], the AC50 in assay [1] came out at 17.6 nM. In addition, the IC50 in assay [2] was 371 nM.
For `COc1cc(-c2cc(C(=O)N3CCC(C(=O)NC4CC(N5CCC(F)(F)C5)C4(C)C)CC34CC4)n[nH]2)c(F)cn1` (single isomer, unassigned) [Example 355-A] the same measures were 10.4 nM and 3.5 nM.
As to `COc1cc(-c2cc(C(=O)N3CCC(C(=O)NCc4ccc5c(c4)CC(=O)N5C)CC3)n[nH]2)c(Cl)cn1` [Example 235, 1-(5-(5-chloro-2-methoxypyridin-4-yl)-1H-pyrazole-3-carbonyl)-N-((1-methyl-2-oxoindolin-5-yl)methyl)piperidine-4-carboxamide], the AC50 in assay [1] was found to be 404 nM. The IC50 in assay [2] (Homo sapiens, UM-UC-9, 144 h) came to 2360 nM.
`COc1cc(-c2cc(C(=O)N3CC[C@H](C(=O)NC4CCN(c5ccnc6[nH]ncc56)C4)CC34CC4)n[nH]2)c(F)cn1` (single isomer, unassigned) [Example 450-B]: the AC50 in assay [1] was 6.8 nM. Also, the IC50 in assay [2] came to 834 nM.
As for `COc1cc(-c2cc(C(=O)N3CC[C@H](C(=O)NC(C)c4nnc(C5CC5)o4)CC34CC4)n[nH]2)c(F)cn1` (single isomer, unassigned) [Example 395-B], in assay [1], the AC50 amounted to 671 nM. For the same compound, the IC50 in assay [2] (Homo sapiens, UM-UC-9, 144 h) came out at 593 nM.
For `COc1cc(-c2cc(C(=O)N3CC[C@H](C(=O)Nc4cnn5ccc(C#N)nc45)CC34CC4)n[nH]2)c(F)cn1` [Example 487, (S)—N-(5-cyanopyrazolo[1,5-a]pyrimidin-3-yl)-4-(5-(5-fluoro-2-methoxypyridin-4-yl)-1H-pyrazole-3-carbonyl)-4-azaspiro[2.5]octane-7-carboxamide], in that order: 0.7 nM and 2.4 nM.
For `COc1cc(-c2cc(C(=O)N3CCC(C(=O)NCc4cccc(Cl)c4)C(F)C3)n[nH]2)c(Cl)cn1` (mixture of isomers) [Example 177, 1-(5-(5-chloro-2-methoxypyridin-4-yl)-1H-pyrazole-3-carbonyl)-N-(3-chlorobenzyl)-3-fluoropiperidine-4-carboxamide], in that order: 29.8 nM and 68.9 nM.
